Data as given in ChEMBL document CHEMBL1141782, “Antineoplastic agents. 553. The Texas grasshopper Brachystola magna” (2005).
In brackets after ≈: the same amount, converted by molar mass.

Columns and labels:
Format in all cases: functional
[1] = test system: DU-145; assay: Cytotoxicity against human DU145 cells after 48 hrs by SRB assay; settings: DU-145, 48 h, read-out: ED50 (the source's name)
[2] = test system: SF-268; assay: Cytotoxicity against human SF268 cells after 48 hrs by SRB assay; settings: SF-268, 48 h, read-out: ED50 (the source's name)
[3] = test system: NCI-H460; assay: Cytotoxicity against human NCI-H460 cells after 48 hrs by SRB assay; settings: NCI-H460, 48 h, read-out: ED50 (the source's name)
[4] = test system: MCF7; assay: Cytotoxicity against human MCF7 cells after 48 hrs by SRB assay; settings: MCF7, 48 h, read-out: ED50 (the source's name)
[5] = test system: P388; assay: Cytotoxicity against mouse P388 cells; settings: read-out: ED50 (the source's name)
[6] = test system: KM-20L2; assay: Cytotoxicity against human KM20L2 cells after 48 hrs by SRB assay; settings: KM-20L2, 48 h, read-out: ED50 (the source's name)
[7] = test system: BXPC-3; assay: Cytotoxicity against human BxPC3 cells after 48 hrs by SRB assay; settings: BXPC-3, 48 h, read-out: ED50 (the source's name)

| SMILES | EC50 [1] | EC50 [2] | EC50 [3] | EC50 [4] | EC50 [5] | EC50 [6] | EC50 [7] |
| --- | --- | --- | --- | --- | --- | --- | --- |
| O=C1N[C@@H]2C(=C[C@H](O)[C@@H](O)[C@H]2O)c2cc3c(c(O)c21)OCO3 [NARCICLASINE] | 0.012 mg/L (≈ 0.0391 µM) | 0.018 mg/L (≈ 0.0586 µM) | 0.014 mg/L (≈ 0.0456 µM) | 0.014 mg/L (≈ 0.0456 µM) | 0.018 mg/L (≈ 0.0586 µM) | 0.023 mg/L (≈ 0.0749 µM) | 0.024 mg/L (≈ 0.0781 µM) |
| O=C1N[C@H]2[C@H](O)[C@H](O)[C@@H](O)[C@H](O)[C@@H]2c2cc3c(c(O)c21)OCO3 [PANCRATISTATIN] | 0.037 mg/L (≈ 0.114 µM) | 0.032 mg/L (≈ 0.0984 µM) | 0.029 mg/L (≈ 0.0892 µM) | 0.035 mg/L (≈ 0.108 µM) | 0.048 mg/L (≈ 0.148 µM) | 0.048 mg/L (≈ 0.148 µM) | 0.043 mg/L (≈ 0.132 µM) |
| [O-]c1cc2c3c(c1)c1cc4c(cc1c[n+]3CC2)OCO4 [UNGEREMINE] | 0.029 mg/L (≈ 0.109 µM) | 0.057 mg/L (≈ 0.215 µM) | 0.65 mg/L (≈ 2.45 µM) | 0.48 mg/L (≈ 1.81 µM) | 1.2 mg/L (≈ 4.52 µM) | 0.5 mg/L (≈ 1.88 µM) | 0.87 mg/L (≈ 3.28 µM) |
